These results are taken from patent US8710065B2, “Tricyclic inhibitors of kinases” (AbbVie Inc., priority 2011, dated 2014).

Structures are written as SMILES. pKi: −log10 of the molar value.

The target in the assay is T1, GST-tagged-Wee1 kinase (Homo sapiens, UniProt P30291).
T1 construct: purchased Carnabio (Carna Biosciences) 05-177
T1 sequence (P30291 whole entry): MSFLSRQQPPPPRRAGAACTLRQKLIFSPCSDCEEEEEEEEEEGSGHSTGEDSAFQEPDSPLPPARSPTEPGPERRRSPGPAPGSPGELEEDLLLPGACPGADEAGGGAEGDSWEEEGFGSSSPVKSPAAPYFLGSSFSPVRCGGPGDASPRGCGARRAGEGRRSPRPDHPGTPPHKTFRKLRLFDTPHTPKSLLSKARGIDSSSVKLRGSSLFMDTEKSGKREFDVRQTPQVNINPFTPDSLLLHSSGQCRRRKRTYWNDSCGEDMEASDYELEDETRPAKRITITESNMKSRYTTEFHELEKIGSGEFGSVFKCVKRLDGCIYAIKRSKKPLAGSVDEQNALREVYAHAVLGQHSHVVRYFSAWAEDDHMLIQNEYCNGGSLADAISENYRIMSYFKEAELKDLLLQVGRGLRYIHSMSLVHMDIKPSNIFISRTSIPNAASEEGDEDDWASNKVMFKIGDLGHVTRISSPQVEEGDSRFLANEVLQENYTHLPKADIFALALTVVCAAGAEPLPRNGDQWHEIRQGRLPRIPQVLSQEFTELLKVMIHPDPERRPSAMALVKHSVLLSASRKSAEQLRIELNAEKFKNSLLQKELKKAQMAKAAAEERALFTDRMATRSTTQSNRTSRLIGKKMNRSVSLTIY
Kind of assay: Wee1 time-resolved fluorescence equilibrium binding assay (displacement of Oregon Green-labeled ATP-competitive kinase probe). As to conditions: read-out: Wee-1 inhibition (Ki). On the procedure: Wee1 kinase was assayed using a time-resolved fluorescence equilibrium binding assay monitoring displacement of a rapidly reversible Oregon Green-labeled ATP-competitive kinase probe (N-(2-(2-(2-(4-(4-(5-chloro-4-(2-(1-hydroxycyclobutyl)thiazol-5-yl)-1H-pyrrolo[2,3-b]pyridin-2-yl)phenyl)piperazin-1-yl)ethoxy)ethoxy)ethyl)-2′,7′-difluoro-3′,6′-dihydroxy-3-oxo-3H-spiro[isobenzofuran-1,9′-xanthene]-5-carboxamide) by competitive Wee1 inhibitors.
Table 1 depicts enzyme inhibition data (Ki) for exemplary compounds.
`CN1CCN(c2ccc(Nc3ncc4c(=O)n(-c5ccccc5Cl)c5nccn5c4n3)cc2Cl)CC1` [Example 32, 2-{[3-chloro-4-(4-methylpiperazin-1-yl)phenyl]amino}-6-(2-chlorophenyl)imidazo[1,2-a]pyrimido[5,4-e]pyrimidin-5(6H)-one]: the pKi (usually −log10 of the Ki, conventionally taken in molar units) is over 8.00.

`CC(C)N1CCN(c2ccc(Nc3ncc4c(=O)n(-c5ccccc5Cl)c5nccn5c4n3)cc2F)CC1` [Example 33, 6-(2-chlorophenyl)-2-({3-fluoro-4-[4-(propan-2-yl)piperazin-1-yl]phenyl}amino)imidazo[1,2-a]pyrimido[5,4-e]pyrimidin-5(6H)-one]: the pKi is over 8.00.

With `CN1CCc2ccc(Nc3ncc4c(=O)n(-c5ccccc5Cl)c5nccn5c4n3)cc2C1` [Example 34, 6-(2-chlorophenyl)-2-[(2-methyl-1,2,3,4-tetrahydroisoquinolin-7-yl)amino]imidazo[1,2-a]pyrimido[5,4-e]pyrimidin-5(6H)-one], the pKi was over 8.00.

Consider `CN(C)CCOc1ccc(Nc2ncc3c(=O)n(-c4ccccc4Cl)c4nccn4c3n2)cc1` [Example 35, 6-(2-chlorophenyl)-2-({4-[2-(dimethylamino)ethoxy]phenyl}amino)imidazo[1,2-a]pyrimido[5,4-e]pyrimidin-5(6H)-one], for which the pKi was over 8.00.

On to `O=c1c2cnc(Nc3ccc(OCCN4CCOCC4)cc3)nc2n2ccnc2n1-c1ccccc1Cl` [Example 36, 6-(2-chlorophenyl)-2-({4-[2-(morpholin-4-yl)ethoxy]phenyl}amino)imidazo[1,2-a]pyrimido[5,4-e]pyrimidin-5(6H)-one], for which the pKi was 7.00 to 8.00.

With `Cc1cc(Nc2ncc3c(=O)n(-c4ccccc4Cl)c4nccn4c3n2)ccc1N1CCCN(C)CC1` [Example 37, 6-(2-chlorophenyl)-2-{[3-methyl-4-(4-methyl-1,4-diazepan-1-yl)phenyl]amino}imidazo[1,2-a]pyrimido[5,4-e]pyrimidin-5(6H)-one], the pKi is over 8.00.

As for `CN1CCC(c2ccc(Nc3ncc4c(=O)n(-c5ccccc5Cl)c5nccn5c4n3)cc2)CC1` [Example 38, 6-(2-chlorophenyl)-2-{[4-(1-methylpiperidin-4-yl)phenyl]amino}imidazo[1,2-a]pyrimido[5,4-e]pyrimidin-5(6H)-one], the pKi was over 8.00.

As for `CN1CCN(c2ccc(Nc3ncc4c(=O)n(-c5ccccc5)c5nccn5c4n3)cc2)CC1` [Example 39, 2-{[4-(4-methylpiperazin-1-yl)phenyl]amino}-6-phenylimidazo[1,2-a]pyrimido[5,4-e]pyrimidin-5(6H)-one], the pKi is 7.00 to 8.00.

On to `Cc1ccc(-n2c(=O)c3cnc(Nc4ccc(N5CCN(C)CC5)cc4)nc3n3ccnc23)c(Cl)c1` [Example 40, 6-(2-chloro-4-methylphenyl)-2-{[4-(4-methylpiperazin-1-yl)phenyl]amino}imidazo[1,2-a]pyrimido[5,4-e]pyrimidin-5(6H)-one], for which the pKi was over 8.00.

In the case of `O=C(NC1CCCCC1)c1ccc(Nc2ncc3c(=O)n(-c4ccccc4Cl)c4nccn4c3n2)cc1` [Example 41, 4-{[6-(2-chlorophenyl)-5-oxo-5,6-dihydroimidazo[1,2-a]pyrimido[5,4-e]pyrimidin-2-yl]amino}-N-cyclohexylbenzamide], the pKi is 7.00 to 8.00.

As for `CN1CCN(C(=O)c2ccc(Nc3ncc4c(=O)n(-c5ccccc5Cl)c5nccn5c4n3)cc2)CC1` [Example 42, 6-(2-chlorophenyl)-2-({4-[(4-methylpiperazin-1-yl)carbonyl]phenyl}amino)imidazo[1,2-a]pyrimido[5,4-e]pyrimidin-5(6H)-one], the pKi is 7.00 to 8.00.

Turning to `O=c1c2cnc(Nc3ccc(-c4cn[nH]c4)cc3)nc2n2ccnc2n1-c1ccccc1Cl` [Example 43, 6-(2-chlorophenyl)-2-{[4-(1H-pyrazol-4-yl)phenyl]amino}imidazo[1,2-a]pyrimido[5,4-e]pyrimidin-5(6H)-one], the pKi was 7.00 to 8.00.

For `CCN(CC)CCOc1ccc(Nc2ncc3c(=O)n(-c4ccccc4Cl)c4nccn4c3n2)cc1` [Example 44, 6-(2-chlorophenyl)-2-({4-[2-(diethylamino)ethoxy]phenyl}amino)imidazo[1,2-a]pyrimido[5,4-e]pyrimidin-5(6H)-one], the pKi was over 8.00.

`O=c1c2cnc(Nc3ccc(-c4cccnc4)cc3)nc2n2ccnc2n1-c1ccccc1Cl` [Example 45, 6-(2-chlorophenyl)-2-{[4-(pyridin-3-yl)phenyl]amino}imidazo[1,2-a]pyrimido[5,4-e]pyrimidin-5(6H)-one]: the pKi was 7.00 to 8.00.

For `O=C(N[C@H]1CC[C@H](O)CC1)c1ccc(Nc2ncc3c(=O)n(-c4ccccc4Cl)c4nccn4c3n2)cc1` [Example 46, 4-{[6-(2-chlorophenyl)-5-oxo-5,6-dihydroimidazo[1,2-a]pyrimido[5,4-e]pyrimidin-2-yl]amino}-N-(trans-4-hydroxycyclohexyl)benzamide], the pKi was 7.00 to 8.00.

Consider `CCNC(=O)c1ccc(Nc2ncc3c(=O)n(-c4ccccc4Cl)c4nccn4c3n2)cc1` [Example 47, 4-{[6-(2-chlorophenyl)-5-oxo-5,6-dihydroimidazo[1,2-a]pyrimido[5,4-e]pyrimidin-2-yl]amino}-N-ethylbenzamide], for which the pKi is 7.00 to 8.00.

As to `O=C(c1ccc(Nc2ncc3c(=O)n(-c4ccccc4Cl)c4nccn4c3n2)cc1)N1CCC(O)CC1` [Example 48, 6-(2-chlorophenyl)-2-({4-[(4-hydroxypiperidin-1-yl)carbonyl]phenyl}amino)imidazo[1,2-a]pyrimido[5,4-e]pyrimidin-5(6H)-one], the pKi is 7.00 to 8.00.

As for `O=C(Nc1ccncc1)c1ccc(Nc2ncc3c(=O)n(-c4ccccc4Cl)c4nccn4c3n2)cc1` [Example 49, 4-{[6-(2-chlorophenyl)-5-oxo-5,6-dihydroimidazo[1,2-a]pyrimido[5,4-e]pyrimidin-2-yl]amino}-N-(pyridin-4-yl)benzamide], the pKi is 7.00 to 8.00.

Take `CCN(CC)CCCOc1ccc(Nc2ncc3c(=O)n(-c4ccccc4Cl)c4nccn4c3n2)cc1F` [Example 50, 6-(2-chlorophenyl)-2-({4-[3-(diethylamino)propoxy]-3-fluorophenyl}amino)imidazo[1,2-a]pyrimido[5,4-e]pyrimidin-5(6H)-one]: the negative-log Ki (pKi) is over 8.00.

Consider `CN1CCN(CCOc2ccc(Nc3ncc4c(=O)n(-c5ccccc5Cl)c5nccn5c4n3)cc2F)CC1` [Example 51, 6-(2-chlorophenyl)-2-({3-fluoro-4-[2-(4-methylpiperazin-1-yl)ethoxy]phenyl}amino)imidazo[1,2-a]pyrimido[5,4-e]pyrimidin-5(6H)-one], for which the pKi is over 8.00.

Consider `COCCN1CCc2ccc(Nc3ncc4c(=O)n(-c5ccccc5Cl)c5nccn5c4n3)cc2C1` [Example 52, 6-(2-chlorophenyl)-2-{[2-(2-methoxyethyl)-1,2,3,4-tetrahydroisoquinolin-7-yl]amino}imidazo[1,2-a]pyrimido[5,4-e]pyrimidin-5(6H)-one], for which the pKi is over 8.00.

Regarding `CN1Cc2cc(Nc3ncc4c(=O)n(-c5ccccc5Cl)c5nccn5c4n3)ccc2C(C)(C)C1` [Example 53, 6-(2-chlorophenyl)-2-[(2,4,4-trimethyl-1,2,3,4-tetrahydroisoquinolin-7-yl)amino]imidazo[1,2-a]pyrimido[5,4-e]pyrimidin-5(6H)-one], the pKi was over 8.00.

`Cc1c(O)cccc1-n1c(=O)c2cnc(Nc3ccccc3)nc2n2ccnc12` [Example 54, 6-(3-hydroxy-2-methylphenyl)-2-(phenylamino)imidazo[1,2-a]pyrimido[5,4-e]pyrimidin-5(6H)-one]: the pKi was 7.00 to 8.00.

Turning to `CN1CCN(c2ccc(Nc3ncc4c(=O)n(-c5c(Cl)cccc5Cl)c5nccn5c4n3)cc2)CC1` [Example 55, 6-(2,6-dichlorophenyl)-2-{[4-(4-methylpiperazin-1-yl)phenyl]amino}imidazo[1,2-a]pyrimido[5,4-e]pyrimidin-5(6H)-one], the pKi was over 8.00.

For the compound `Nc1ccc(Nc2ncc3c(=O)n(-c4ccccc4Cl)c4nccn4c3n2)cc1` [Example 56, 2-[(4-aminophenyl)amino]-6-(2-chlorophenyl)imidazo[1,2-a]pyrimido[5,4-e]pyrimidin-5(6H)-one], the pKi was 7.00 to 8.00.

Regarding `CC(=O)Nc1ccc(Nc2ncc3c(=O)n(-c4ccccc4Cl)c4nccn4c3n2)cc1` [Example 57, N-(4-{[6-(2-chlorophenyl)-5-oxo-5,6-dihydroimidazo[1,2-a]pyrimido[5,4-e]pyrimidin-2-yl]amino}phenyl)acetamide], the pKi was 7.00 to 8.00.

In the case of `O=C(Nc1ccc(Nc2ncc3c(=O)n(-c4ccccc4Cl)c4nccn4c3n2)cc1)C1CCCC1` [Example 58, N-(4-{[6-(2-chlorophenyl)-5-oxo-5,6-dihydroimidazo[1,2-a]pyrimido[5,4-e]pyrimidin-2-yl]amino}phenyl)cyclopentanecarboxamide], the pKi is 7.00 to 8.00.

On to `O=C(Nc1ccc(Nc2ncc3c(=O)n(-c4ccccc4Cl)c4nccn4c3n2)cc1)C1CCC(O)CC1` (stereo not drawn) [Example 59, N-(4-{[6-(2-chlorophenyl)-5-oxo-5,6-dihydroimidazo[1,2-a]pyrimido[5,4-e]pyrimidin-2-yl]amino}phenyl)-4-hydroxycyclohexanecarboxamide], for which the pKi is 7.00 to 8.00.

Regarding `CN1CCC(C(=O)Nc2ccc(Nc3ncc4c(=O)n(-c5ccccc5Cl)c5nccn5c4n3)cc2)CC1` [Example 60, N-(4-{[6-(2-chlorophenyl)-5-oxo-5,6-dihydroimidazo[1,2-a]pyrimido[5,4-e]pyrimidin-2-yl]amino}phenyl)-1-methylpiperidine-4-carboxamide], the pKi is over 8.00.

For `O=C(Nc1ccc(Nc2ncc3c(=O)n(-c4ccccc4Cl)c4nccn4c3n2)cc1)c1ccncc1` [Example 61, N-(4-{[6-(2-chlorophenyl)-5-oxo-5,6-dihydroimidazo[1,2-a]pyrimido[5,4-e]pyrimidin-2-yl]amino}phenyl)pyridine-4-carboxamide], the pKi was over 8.00.
